Laboratory results reported in patent US20070004743A1, “Intranasal administration of mc4-r agonists” (priority 2002, published 2007).

Key:
ob/ob mice [1] = test: Intranasal (IN) efficacy, food intake in fasted ob/ob mice; assay type: in vivo
Description: Subjects: ob/ob mice; approximately 10 weeks old males; body weight 50-60 grams.
The mice were divided into the following groups: • 1) Mice received only vehicle. The vehicle was one of the following: water, 10 mM phosphate buffer, 5% captisol in 10 mM phosphate buffer (see Table 1 for details). • 2) Mice received a compound of an embodiment of the present invention at a dosage of 1 mg/kg. • 3) Mice received a compound of an embodiment of the present invention at a dosage of 3 mg/kg. • 4) Mice received a compound of an embodiment of the present invention at a dosage of 6 mg/kg. n=6-8 animals per group
Note: For compound 1 and compound 2, the 1 mg/kg group was not included.
Animals were fasted overnight (˜16 hours), and an MC4-R agonist compound as described in Tables 1-3 was administered at 8:30 am next day. The administration volume was 20-25 μl/50 grams of body weight. […]
IN Efficacy Procedure: Mice were fasted overnight. […] Food weight was measured at 1, 2, 3, 4, 6, and 8 hours following the dosing. […]
(§1) IN Efficacy Procedure: Mice were fasted overnight. […] Food weight was measured at 1, 2, 3, 4, 6, and 8 hours following the dosing.
as §1
IN Efficacy Procedure: Mice were fasted overnight. […] Food weight was measured at 1, 2, 3, 4, and 6 hours following the dosing.

ob/ob mice [2] = test: Oral (PO) efficacy, food intake in fasted ob/ob mice; assay type: in vivo; conditions: 30 mg/kg given orally, FIG. 1B
Description: Subjects: ob/ob mice, ˜10 weeks old males. Body weight ˜50 grams.
PO Efficacy Groups: • 1) Vehicle=water • 2) Compound 1=200 μl of 2.5 mg/ml (10 mg/kg) • 3) Compound 1=200 μl of 7.5 mg/ml (30 mg/kg) n=8/group fasted
PO Efficacy Procedure: Mice were fasted overnight. At about 9:00 am the next morning, they were dosed with 200 μl of vehicle or compound solution by oral gavage. Mice were fed with pre-weighed food immediately after dosing, and had access to water the entire time. Food weight was measured at 1, 2, 3, 4, 6, and 24 hours following the dosing.

[3] = acute intranasal, humans; ACTH4-10 1 mg, desacetyl-αMSH equimolar 1.68 mg; cited from earlier work
[4] = humans, cited from earlier work; for body fat: intranasal administration
[5] = after intranasal administration

Compound | reduction in cumulative food intake (ob/ob mice [1]; 3 mg/kg administered intranasally, FIG. 1A) [%] | increase in biological effect, intranasal versus oral, dose-normalised (ob/ob mice [1]; ((59%/39%)÷(3/30)), 3 mg/kg intranasal vs 30 mg/kg oral) | decrease in cumulative food intake (ob/ob mice [2]) [%] | processing negativity (PN) of the ERP over frontal and central cortical areas [3] | body fat [4] | insulin levels [4, 5] | plasma leptin levels [4, 5]
COc1ccc(CCNC(=O)c2ccc(N/C(=N/[C@H]3C[C@H]4C[C@@H]([C@@H]3C)C4(C)C)N3CCN[C@@H](C)C3)cc2)c(F)c1 [Compound 1] | 59 | approximately 15.1 times | 39 | – | – | – | –
desacetyl-αMSH | – | – | – | ineffective | nonsignificant | – | –
melanocyte stimulating hormone/adrenocorticotropin4-10 (MEHFRWG; Corticotropin; UniProt P01189 141-147, looked up, fragment) [MSH/ACTH4-10] | – | – | – | reduced | reduced body fat | decreased | decreased
